Source: patent US20150104466A1, “CYTOMEGALOVIRUS DISINTEGRIN-LIKE PEPTIDES” (priority 2013, published 2015)

Legend:
[1] = test system: HCMV strain AD169; assay: Virus entry assay: HCMV infectivity by IE gene expression (immunofluorescence); format: cell-based, Human cytomegalovirus; conditions: NHDFs treated with peptide or antibody prior to HCMV challenge
Protocol: (§1) For CMV entry assays, subconfluent cells were grown on glass coverslips in 12-well plates. Integrin neutralizing antibodies or peptides were incubated in serum-free DMEM with cell monolayer for 30 minutes at 37° C. Cells were washed with phosphate-buffered saline (PBS) and incubated with HCMV strain AD169, MCMV Smith strain, or MCMV-GFP for 60 minutes at 37° C. Any non-penetrated virus was inactivated with low-pH citrate buffer (40 mM citric acid, 10 mM KCl, 135 mM NaCl, pH 3.0). The cells were incubated 20-24 hours at 37° C. in DMEM supplemented with 2% bovine calf serum (BCS). […] Experiments were performed in triplicate with a minimum of 1000 cells scored per coverslip. […] Cells were incubated 6 hours at 37° C. in DMEM supplemented with 10% BCS prior to lysis (100 mM sodium phosphate, 10 mM KCl, 1 mM magnesium sulfate, 0.1% NP-40, pH 7.4). β-galactosidase activity was measured by addition of o-nitrophenyl-β-D-galactopyranoside (ONPG) and the absorbance was monitored at 420 nm.
FIG. 2A presents the results of a series of assays wherein NHDFs were treated with HCMV gB disintegrin-like peptide, gB disintegrin-like Null peptide, RGD, or RGE peptide prior to HCMV challenge (as indicated in the FIG. 2A). Infectivity was determined by IE gene expression. […]

[2] = test system: NHDF cells; assay: Cytoskeletal rearrangement in NHDF cells (actin staining with phalloidin); format: cell-based, human; conditions: compared to buffer alone
Source text: gBDLD Triggers Cytoskeletal Rearrangements: β1 integrins are known inducers of broad signal transduction events. […] To test the role of gBDLD in mediating signaling events, we stimulated NHDF cells with buffer alone, gBDLD, or a known cytoskeletal reorganizer (EGF), followed by actin staining with phalloidin.

[3] = test system: MCMV; assay: Virus entry assay: MCMV infectivity (e1-positive cells); format: cell-based, Murine cytomegalovirus; conditions: mouse fibroblasts (murine 3T3) treated with peptide, then MCMV challenge
Protocol: as §1
FIG. 4B is a histogram showing the results of an assay wherein GD25, GD25β1 and 3T3 cells were treated with β1, β3, and β1+β3 antibodies, followed by MCMV infection. As described above, infectivity was determined by scoring e1-(early protein) positive cells. […]

[4] = test system: HSV-1(KOS)gL86; assay: HSV entry assay (β-galactosidase activity); format: cell-based, herpes simplex virus-1; conditions: cells treated with peptide, then HSV-1 challenge
Protocol: For CMV entry assays, subconfluent cells were grown on glass coverslips in 12-well plates. Integrin neutralizing antibodies or peptides were incubated in serum-free DMEM with cell monolayer for 30 minutes at 37° C. Cells were washed with phosphate-buffered saline (PBS) and incubated with HCMV strain AD169, MCMV Smith strain, or MCMV-GFP for 60 minutes at 37° C. Any non-penetrated virus was inactivated with low-pH citrate buffer (40 mM citric acid, 10 mM KCl, 135 mM NaCl, pH 3.0). The cells were incubated 20-24 hours at 37° C. in DMEM supplemented with 2% bovine calf serum (BCS). Immunofluorescence analysis was performed as previously described^28 with either mouse anti-IE monoclonal antibody 1203, mouse anti-pp65 monoclonal antibody or rabbit anti-MCMV el polyclonal, followed by detection with a fluorescein-conjugated goat anti-mouse secondary or a fluorescein-conjugated goat anti-rabbit secondary antibody. Nuclei were stained with 300 nM 4′,6-diamidino-2-phenylindole (DAPI). Experiments were performed in triplicate with a minimum of 1000 cells scored per coverslip. […] Cells were incubated 6 hours at 37° C. in DMEM supplemented with 10% BCS prior to lysis (100 mM sodium phosphate, 10 mM KCl, 1 mM magnesium sulfate, 0.1% NP-40, pH 7.4). β-galactosidase activity was measured by addition of o-nitrophenyl-β-D-galactopyranoside (ONPG) and the absorbance was monitored at 420 nm.

[5] = test system: HCMV AD 169; assay: Virus binding assay: HCMV attachment to NHDF cells at 4° C. (gB ELISA); format: cell-based, Human cytomegalovirus; conditions: 1 mM peptide, 1:50 DE9, α2 and α6 antibodies 20 μg/mL
Protocol: NHDF cells were grown in 96-well plates and treated with integrin-neutralizing antibodies, peptides, or heparin for 60 minutes at 4° C. Cells were then challenged with HCMV AD 169 at a multiplicity of infection (MOI) of 5 pfu/cell for 60 minutes at 4° C. Unbound virus was removed and cells were washed and fixed with 3% paraformaldehyde. Bound HCMV was detected with monoclonal antibody 27-78, horseradish peroxidase (HRP)-conjugated goat anti-mouse secondary antibody, and ImmunoPure TMB Substrate Kit (Pierce, Rockford, Ill.). Absorbance was measured at 450 nm. All experiments were performed in triplicate.
During virus infection, integrins are utilized as primary viral attachment receptors or as post-attachment (fusion-activating) or internalization receptors.^11 To determine at which step in the HCMV entry pathway integrins are functioning, cell binding (i.e., attachment) experiments were performed, as well as assays to measure viral payload delivery into the cytoplasm (internalization). For the binding assays, virus was bound at 4° C. to allow for stable virus binding, but to restrict fusion and internalization. The results are depicted in FIG. 6A. […] Attachment was measured by gB ELISA.

[6] = test system: HCMV; assay: Viral payload delivery: pp65 localization in fibroblasts after HCMV infection; format: cell-based, Human cytomegalovirus; conditions: human fibroblasts treated, then infected with HCMV
Protocol: as §1
Next, an assay was performed that directly measured delivery of an internal virion component. […] FIG. 6B is a histogram showing the results of a series of assays wherein human fibroblasts were treated with various integrin-blocking agents, infected with HCMV, and then assayed for viral payload as measured by pp65 localization. […]

**Q.** With “AVCSMAGGTAAIRAERNIIC (listed as Human cytomegalovirus) [gB disintegrin-like null peptide, null peptide containing alanine substitutions in the disintegrin-like consensus residues, reference compound]” as the substance, how does the “inhibition of HCMV infectivity compared to infectivity seen with no treatment” value [1] read?
**A.** The value was “HCMV was able to infect”.

**Q.** With “EGF: a known cytoskeletal reorganizer [reference compound]” as the substance, how does the “reorganization of the cytoskeleton” value [2] read?
**A.** The value was “triggered a dramatic reorganization of the cytoskeleton”.

**Q.** Which results are given for “RVCSMAQGTDLIRFERNIIC (listed as Human cytomegalovirus) [gB disintegrin-like peptide, 20 amino acid synthetic peptide encompassing the HCMV gB disintegrin-like domain]”?
**A.** inhibition of HCMV infectivity compared to infectivity seen with no treatment [1]: dose-dependent inhibitory response to infection; MCMV infectivity after peptide treatment [3]: dramatic reduction in MCMV infectivity; ability of HSV-1 to infect cells after peptide treatment [4]: no effect; HCMV attachment (binding) to host cells [5]: no effect on HCMV attachment; uptake of pp65 tegument protein [6]: little uptake of the pp65 tegument protein
